pIC50: −log10 of the molar value.
Target: human histamine H1-receptor (Homo sapiens (Human), UniProt P35367)
Assay: Affinity for histamine H1-receptor: 3H-pyrilamine binding to membranes of CHO cells transfected with the human H1 receptor
Details: comparative compounds from the state of the art; same protocol; read-out: IC50, affinity for human histamine H1-receptor for comparative compounds
Method: Affinity for histamine H1-receptor was determined by binding studies to H1 receptors. The sample used is a suspension of membranes of CHO cells transfected with the human H1 receptor (5 mg/ml, PerkinElmer), stored at −80° C. until use. After thawing, the membranes were homogenized in assay buffer (50 mM Na/K phosphate) prepared in purified water and kept at room temperature (pH 7.4). The assay was performed in 96-well microplates. In each well, 25 μl of buffer and 25 μl of vehicle (total binding) or 10 μM pyrilamine (nonspecific binding) or the products to be tested was added. Subsequently, 200 μl of the membrane suspension was added to all wells and the microtiter plate was preincubated at 25° C. for 15 min. After this time, 25 μl of 3H-pyrilamine (1.5 nM) was added and the reaction was allowed to incubate for 60 min at 25° C. Then, free radioligand was quickly separated from bound radioligand by vacuum filtration (Multiscreen microplate Screener), performing 10 washes with assay buffer (4° C.). Subsequently 45 μl of scintillation fluid was added to each well and after sealing of the microplate, the radioactivity was quantified in a liquid scintillation counter (TopCount). The graphs of the inhibition curves and calculation the IC50 value were generated with the GraphPad Prism program.
Affinity for histamine H1-receptor of four compounds from the state of the art was determined by binding studies to H1 receptors using the same protocol as described above. The graphs of the inhibition curves and calculation the IC50 value were generated also with the GraphPad Prism program.

human histamine H1-receptor, sequence (P35367 whole entry): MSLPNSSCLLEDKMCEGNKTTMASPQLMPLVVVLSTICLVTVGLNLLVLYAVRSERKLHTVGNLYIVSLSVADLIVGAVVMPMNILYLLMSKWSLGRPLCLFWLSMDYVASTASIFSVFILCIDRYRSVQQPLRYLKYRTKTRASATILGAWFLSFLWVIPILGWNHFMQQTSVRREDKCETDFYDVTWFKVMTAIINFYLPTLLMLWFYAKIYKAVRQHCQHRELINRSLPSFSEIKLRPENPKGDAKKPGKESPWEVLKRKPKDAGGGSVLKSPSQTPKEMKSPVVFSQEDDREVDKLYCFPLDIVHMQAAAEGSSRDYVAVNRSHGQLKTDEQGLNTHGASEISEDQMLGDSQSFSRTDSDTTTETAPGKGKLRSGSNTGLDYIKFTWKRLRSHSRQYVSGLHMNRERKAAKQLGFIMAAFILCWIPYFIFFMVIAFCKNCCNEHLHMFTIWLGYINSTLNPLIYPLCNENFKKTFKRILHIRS

Compared with CCOCCn1c(C2CCN(CCc3ccc(C(C)(C)C)cc3)CC2)nc2ccccc21 [reference compound], CCOCCn1c(C2CCN(CCOc3ccc(CC(=O)O)cc3)CC2)nc2ccccc21 [reference compound] is 0.67 log units lower in pIC50: 6.37 for the first, 5.70 for the second. The first is the more potent here.

O=C(O)Cc1ccc(OCCN2CCC(c3nc4ccccc4n3CCOc3ccccc3)CC2)cc1 [reference compound] and O=C(O)c1ccc(OCCN2CCC(c3nc4ccccc4n3CCOc3ccccc3)CC2)cc1 [reference compound] are within 0.2 log units of each other in pIC50: 6.57 for the first, 6.59 for the second.

Same assay, conditions: compounds of the invention; 3H-pyrilamine 1.5 nM, 60 min at 25° C., CHO cell membranes; read-out: IC50, affinity for human histamine H1-receptor

CCOCCn1c(C2CCN(CCO)CC2)nc2ccccc21 and CCOCCn1c(C2CCN(CCCO)CC2)nc2ccccc21 are within 0.2 log units of each other in pIC50: 7.60 for the first, 7.55 for the second.

CCOCCOCCN1CCC(c2nc3ccccc3n2CCOCC)CC1 and CCOCCn1c(C2CCN(CCOCC(=O)OCC)CC2)nc2ccccc21 are within 0.2 log units of each other in pIC50: 6.94 for the first, 6.77 for the second.

Going from CCOCCn1c(C2CCN(CCOC)CC2)nc2ccccc21 to CCOCCn1c(C2CCN(CCOC(C)=O)CC2)nc2ccccc21, the pIC50 rises from 7.03 to 7.27 (0.24 log units). The second is the more potent here.

OCCN1CCC(c2nc3ccccc3n2Cc2ccccn2)CC1 and COC(=O)COCCN1CCC(c2nc3ccccc3n2CCOc2ccccc2)CC1 [drawing 32] are within 0.2 log units of each other in pIC50: 6.76 for the first, 6.71 for the second.

Test system: histamine papules
Assay: Antihistaminic activity: histamine papules in rats (Evans blue extraction)
Type: in vivo
Details: 20 mg/kg oral gavage, intradermal histamine one hour after administration
Method: Antihistaminic activity: histamine papules [Mota I., Life Sci., 1963, 12, 917-927; Lefebvre P. et al., C. R. Soc. Biol., 1962, 156, 183-186; and Udaka K. et al., Proc Soc Exp Biol Med, 1970, 133, 1384-1387]
Rats, males and/or females (110-160 g) were used, kept under the usual conditions of temperature and humidity. Previous day, backs of the animals were shaved and since that time (16-24 h) animals were subjected to solid fast but supplied ad libitum with an aqueous solution of sucrose (8%) and sodium chloride (0.2%). The compounds to be tested were dissolved in tartaric acid (Probus 015420) 0.1 M at a concentration of 5 mg/ml and then diluted with water until the concentration to be tested. This suspension or solution of the compound to be tested was administered by rigid oral gavage at 10 mL/kg. The control group received by the same administration mode a solution of tartaric acid (Probus 015420) 0.1 M in water. One hour after oral administration (products, patterns or vehicle), and under light ether anesthesia, two bumps were made on the shaved back by intradermal injection of Histamine hydrochloride (Sigma H-7250) dissolved in sterile saline (10 mg/0.1 mL/papule). Immediately after, dye injection of Evans blue (Merck No. 3169) dissolved in sterile saline (25 mg/kg/4 mL) was administered intravenously. […] The concentration of extracted Evans blue was determined by microplate reader.

In the case of COC(=O)COCCN1CCC(c2nc3ccccc3n2CCOc2ccccc2)CC1 [drawing 37], the “% inhibition, histamine papules” value was 45.03%.
